# Reference: PMC11766267 (International Journal of Molecular Sciences, 2025)
# Where “and” joins values, the source holds several entries; their conditions need not be identical. Identical values can stand only once. Like-named read-outs stand apart in the source and are kept apart here.
# Tests used:
# [1] = tested on: HCT-116, MDA-MB-231, HeLa, and MCF-7; assay: MTT cytotoxicity assay, ranges stated over several cell lines; type: cell-based; settings: Homo sapiens
# Experimental: (§1) Subsequently, 100 µL of dimethyl sulfoxide was introduced to dissolve the insoluble formazan.
# MDA-MB-231 = assay: MTT cytotoxicity assay, MDA-MB-231; type: cell-based; settings: Homo sapiens, 24 h treatment, mean ± SD of triplicate
# Experimental: as §1
# HCT-116 = assay: MTT cytotoxicity assay, HCT-116; type: cell-based; settings: Homo sapiens, 24 h treatment, mean ± SD of triplicate
# Experimental: as §1
# MCF-7 [2] = assay: MTT cytotoxicity assay, MCF-7; type: cell-based, human; settings: Homo sapiens, MCF7, 24 h, 24 h treatment, mean ± SD of triplicate
# Experimental: as §1
# [3] = MTT cytotoxicity assay, normal cell line WI-38; type: cell-based, human; settings: human, WI-38 cells (normal human lung fibroblasts), normal (non-cancer) cell line, 24 h treatment
# Experimental: as §1
# WI-38 = assay: MTT cytotoxicity assay, normal cell line WI-38; type: cell-based, human; settings: normal (non-cancer) cell line, 24 h treatment
# Experimental: as §1
# HeLa = assay: MTT cytotoxicity assay, HeLa; type: cell-based; settings: Homo sapiens, 24 h treatment, mean ± SD of triplicate
# Experimental: as §1
# VEGFR-2 = VEGFR-2 (Homo sapiens, UniProt P35968); assay: In vitro protein kinase inhibition assay (ELISA kit), VEGFR-2
# MCF-7a = assay: In vitro anti-estrogenic activity assay, MCF-7a
# MCF-7 [4] = assay: In vitro anti-estrogenic activity assay, MCF-7
# [5] = biological target: T1, aromatase (CYP19A, EC 1.14.14.14) (Homo sapiens, UniProt P11511); assay: biochemical
# T1 construct: Microsomal samples were isolated from tissue using the Microsome Isolation Kit; tissue BioVision K983-100; host or cells: microsomes from an unnamed tissue
# T1 sequence (P11511 1-503): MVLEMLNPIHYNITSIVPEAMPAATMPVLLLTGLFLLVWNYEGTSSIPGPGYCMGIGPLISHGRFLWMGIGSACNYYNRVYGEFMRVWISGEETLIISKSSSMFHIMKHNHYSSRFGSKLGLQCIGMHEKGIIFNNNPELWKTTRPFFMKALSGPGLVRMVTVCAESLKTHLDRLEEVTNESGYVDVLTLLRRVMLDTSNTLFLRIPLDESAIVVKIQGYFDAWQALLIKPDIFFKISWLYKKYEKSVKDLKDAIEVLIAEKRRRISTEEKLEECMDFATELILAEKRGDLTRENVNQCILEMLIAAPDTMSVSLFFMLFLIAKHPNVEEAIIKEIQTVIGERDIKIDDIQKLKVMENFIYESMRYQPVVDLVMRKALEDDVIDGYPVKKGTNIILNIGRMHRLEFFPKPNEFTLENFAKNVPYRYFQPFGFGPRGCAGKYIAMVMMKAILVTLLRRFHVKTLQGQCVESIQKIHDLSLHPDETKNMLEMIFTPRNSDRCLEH
# Experimental: In vitro aromatase assay was performed using the BioVision Aromatase Activity Assay Kit (Catalog # K983-100; BioVision, Milpitas, CA, USA). Microsomal samples were isolated from tissue using the Microsome Isolation Kit (Cat. #K249; BioVision, Milpitas, CA, USA). A standard curve was established by diluting the Fluorescence Standard provided in the kit to create a 0.5 pmole/µL solution, followed by setting up a series of standards in a white 96-well plate, adjusting the total volume to 100 µL with aromatase assay buffer. For each reaction well, a 2X concentrated mix was prepared by adding 2–48 µL of the microsomal sample and 2 µL of the NADPH generating system, bringing the final volume to 50 µL with aromatase assay buffer. Background controls (no enzyme) and positive controls (with recombinant aromatase) were included. […] After a 10 min incubation at 37 °C, 30 µL of the substrate/NADP+ mixture was added to each well, and fluorescence was measured immediately in kinetic mode for 60 min at 37 °C. Finally, the change in fluorescence was calculated to determine the specific activity of aromatase using the formula provided in the kit protocol.
# CDK2 = CDK2 (Homo sapiens, UniProt P24941); assay: In vitro protein kinase inhibition assay (ELISA kit), CDK2
# HER2 = HER2 (Homo sapiens, UniProt P04626); assay: In vitro protein kinase inhibition assay (ELISA kit), HER2
# EGFR = EGFR (Homo sapiens, UniProt P00533); assay: In vitro protein kinase inhibition assay (ELISA kit), EGFR
# [6] = HCT-116, MDA-MB-231, HeLa, MCF-7, range, read-out: IC50 values, range over the cancer cell lines tested
# [7] = cell count relative to the control (17β-E2)
# Chain of VEGFR-2 (P35968 20-1356): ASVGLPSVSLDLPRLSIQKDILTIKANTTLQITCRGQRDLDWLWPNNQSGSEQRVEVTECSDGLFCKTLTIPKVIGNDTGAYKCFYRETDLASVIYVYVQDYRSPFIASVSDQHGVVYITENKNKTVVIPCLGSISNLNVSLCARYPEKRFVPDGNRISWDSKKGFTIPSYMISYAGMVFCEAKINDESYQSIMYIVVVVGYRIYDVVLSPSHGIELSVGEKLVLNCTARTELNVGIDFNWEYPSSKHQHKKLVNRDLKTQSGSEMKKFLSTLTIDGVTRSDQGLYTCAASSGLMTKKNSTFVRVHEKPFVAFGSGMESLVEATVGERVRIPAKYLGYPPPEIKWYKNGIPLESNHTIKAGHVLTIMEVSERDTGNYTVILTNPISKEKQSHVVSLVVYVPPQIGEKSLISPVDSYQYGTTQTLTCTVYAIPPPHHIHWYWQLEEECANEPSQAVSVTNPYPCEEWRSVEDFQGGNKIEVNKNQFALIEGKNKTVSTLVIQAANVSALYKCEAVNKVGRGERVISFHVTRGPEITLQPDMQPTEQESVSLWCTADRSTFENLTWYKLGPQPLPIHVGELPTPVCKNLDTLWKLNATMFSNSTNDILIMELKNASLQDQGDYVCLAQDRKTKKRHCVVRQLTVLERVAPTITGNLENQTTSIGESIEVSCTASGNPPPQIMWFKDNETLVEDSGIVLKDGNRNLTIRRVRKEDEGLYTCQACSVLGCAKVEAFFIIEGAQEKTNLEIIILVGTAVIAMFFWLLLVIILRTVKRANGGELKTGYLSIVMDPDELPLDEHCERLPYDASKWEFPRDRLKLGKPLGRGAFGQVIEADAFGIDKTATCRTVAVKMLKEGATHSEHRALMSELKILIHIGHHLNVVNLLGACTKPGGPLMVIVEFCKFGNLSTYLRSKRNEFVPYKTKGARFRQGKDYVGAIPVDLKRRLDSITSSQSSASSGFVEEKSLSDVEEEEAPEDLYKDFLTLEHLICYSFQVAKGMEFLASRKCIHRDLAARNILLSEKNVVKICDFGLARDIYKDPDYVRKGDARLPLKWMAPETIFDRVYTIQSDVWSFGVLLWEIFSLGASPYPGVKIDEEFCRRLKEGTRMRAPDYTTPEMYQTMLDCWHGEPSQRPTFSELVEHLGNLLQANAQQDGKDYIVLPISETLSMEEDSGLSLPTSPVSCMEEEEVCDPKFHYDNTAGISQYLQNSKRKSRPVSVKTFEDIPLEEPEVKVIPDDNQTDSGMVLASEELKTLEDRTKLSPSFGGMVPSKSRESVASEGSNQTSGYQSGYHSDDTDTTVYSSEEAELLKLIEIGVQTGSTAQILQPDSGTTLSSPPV
# Chain of HER2 (P04626 23-1255): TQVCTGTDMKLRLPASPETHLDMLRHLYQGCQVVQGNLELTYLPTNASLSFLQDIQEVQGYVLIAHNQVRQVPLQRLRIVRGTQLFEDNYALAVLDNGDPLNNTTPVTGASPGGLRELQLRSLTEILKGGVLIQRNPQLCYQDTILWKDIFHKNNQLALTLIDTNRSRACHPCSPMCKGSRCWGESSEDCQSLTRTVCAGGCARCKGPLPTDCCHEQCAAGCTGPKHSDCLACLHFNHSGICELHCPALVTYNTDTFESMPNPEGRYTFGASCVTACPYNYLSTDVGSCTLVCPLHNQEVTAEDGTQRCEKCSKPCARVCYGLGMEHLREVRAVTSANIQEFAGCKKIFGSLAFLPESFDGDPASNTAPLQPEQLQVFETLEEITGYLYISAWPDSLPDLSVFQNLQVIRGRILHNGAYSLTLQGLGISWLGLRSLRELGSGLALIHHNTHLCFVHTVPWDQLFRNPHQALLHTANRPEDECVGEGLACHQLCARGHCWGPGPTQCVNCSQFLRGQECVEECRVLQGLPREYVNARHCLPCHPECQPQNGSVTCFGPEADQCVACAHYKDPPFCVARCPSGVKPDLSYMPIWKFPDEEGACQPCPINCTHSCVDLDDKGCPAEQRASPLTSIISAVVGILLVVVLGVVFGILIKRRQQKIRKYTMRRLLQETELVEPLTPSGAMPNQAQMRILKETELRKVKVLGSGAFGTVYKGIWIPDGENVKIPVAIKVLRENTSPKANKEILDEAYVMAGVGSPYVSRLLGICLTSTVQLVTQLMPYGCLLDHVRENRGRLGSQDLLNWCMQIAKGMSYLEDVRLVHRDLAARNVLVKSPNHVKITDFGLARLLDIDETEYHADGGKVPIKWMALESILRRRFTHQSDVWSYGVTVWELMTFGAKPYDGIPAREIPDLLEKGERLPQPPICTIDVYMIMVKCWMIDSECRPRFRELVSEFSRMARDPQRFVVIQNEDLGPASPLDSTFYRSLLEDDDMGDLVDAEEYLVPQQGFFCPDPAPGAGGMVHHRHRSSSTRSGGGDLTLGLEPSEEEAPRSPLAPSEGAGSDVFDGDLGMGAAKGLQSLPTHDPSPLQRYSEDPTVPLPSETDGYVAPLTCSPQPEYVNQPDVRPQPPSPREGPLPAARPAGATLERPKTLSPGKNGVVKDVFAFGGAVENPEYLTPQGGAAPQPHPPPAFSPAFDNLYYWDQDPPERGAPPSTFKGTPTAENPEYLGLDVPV
# Chain of EGFR (P00533 25-1210): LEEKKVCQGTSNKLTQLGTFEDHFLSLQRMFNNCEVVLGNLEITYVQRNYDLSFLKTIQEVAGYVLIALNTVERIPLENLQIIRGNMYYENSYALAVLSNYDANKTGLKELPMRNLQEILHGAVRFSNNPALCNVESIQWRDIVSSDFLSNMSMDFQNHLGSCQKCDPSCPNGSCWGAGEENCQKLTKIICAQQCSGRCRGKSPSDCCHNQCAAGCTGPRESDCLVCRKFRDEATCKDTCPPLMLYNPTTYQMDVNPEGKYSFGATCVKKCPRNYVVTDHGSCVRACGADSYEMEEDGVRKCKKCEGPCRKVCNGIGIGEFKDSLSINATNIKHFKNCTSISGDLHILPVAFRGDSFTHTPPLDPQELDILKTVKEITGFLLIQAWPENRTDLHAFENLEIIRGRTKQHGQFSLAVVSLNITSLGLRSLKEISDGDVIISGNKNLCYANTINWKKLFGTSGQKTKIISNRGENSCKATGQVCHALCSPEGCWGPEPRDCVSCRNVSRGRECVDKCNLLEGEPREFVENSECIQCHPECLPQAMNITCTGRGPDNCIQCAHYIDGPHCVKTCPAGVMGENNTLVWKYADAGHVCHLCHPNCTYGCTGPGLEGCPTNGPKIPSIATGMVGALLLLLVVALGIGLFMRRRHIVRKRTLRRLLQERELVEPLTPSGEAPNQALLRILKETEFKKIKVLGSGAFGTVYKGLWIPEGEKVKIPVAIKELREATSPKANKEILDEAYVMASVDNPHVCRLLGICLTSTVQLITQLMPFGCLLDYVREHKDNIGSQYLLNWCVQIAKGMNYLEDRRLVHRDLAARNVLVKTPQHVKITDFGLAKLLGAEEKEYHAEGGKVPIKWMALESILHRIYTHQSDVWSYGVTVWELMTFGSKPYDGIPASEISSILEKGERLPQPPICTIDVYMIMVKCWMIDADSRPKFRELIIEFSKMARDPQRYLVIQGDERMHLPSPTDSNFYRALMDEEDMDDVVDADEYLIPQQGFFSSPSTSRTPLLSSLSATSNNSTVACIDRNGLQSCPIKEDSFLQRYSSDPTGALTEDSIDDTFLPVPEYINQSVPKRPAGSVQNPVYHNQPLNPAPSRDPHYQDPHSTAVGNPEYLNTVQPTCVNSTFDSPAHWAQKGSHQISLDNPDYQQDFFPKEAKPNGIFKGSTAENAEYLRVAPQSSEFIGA
compound,measurement,setting,value
"COc1cccc(/C=C/C(=O)c2ccccc2)c1 [Compound 4d, (E)-3-(3-Methoxyphenyl)-1-phenylprop-2-en-1-one]",IC50,[1]; [6],23.5 to 74.5 µM
same,IC50,MDA-MB-231,43.6 ± 2.3 µM
same,IC50,HCT-116,36 ± 2.2 µM
same,IC50,MCF-7 [2],29.7 ± 1.9 µM
same,IC50 at 24 h,[3],77.3 to 100 µM
same,IC50,WI-38,77.3 ± 3.8 µM
same,IC50,HeLa,39.4 ± 2.3 µM
"COc1cc(/C=C/C(=O)c2ccccc2)ccc1OCc1ccccc1 [Compound 4t, (E)-3-(4-(Benzyloxy)-3-methoxyphenyl)-1-phenylprop-2-en-1-one]",IC50,[1]; [6],55.6 to 82.8 µM
same,IC50,MDA-MB-231,64.1 ± 3.8 µM
same,IC50,HCT-116,68.9 ± 3.7 µM
same,IC50,MCF-7 [2],55.6 ± 2.9 µM
same,IC50 at 24 h,[3],40 to 40.1 µM
same,IC50,WI-38,40.1 ± 2.5 µM
same,IC50,HeLa,59.3 ± 3.4 µM
"COc1ccc(C(=O)/C=C/c2ccc(OCc3ccccc3)c(OC)c2)cc1 [Compound 4v, (E)-3-(4-(Benzyloxy)-3-methoxyphenyl)-1-(4-methoxyphenyl)prop-2-en-1-one]",IC50,"[1]; HCT-116 and HeLa, range over the compounds named, read-out: IC50 values, range against HCT-116 and HeLa",6.59 to 22.6 µM
same,IC50,"[1]; MDA-MB-231 and MCF-7, range over the compounds named, read-out: IC50 values, range against MDA-MB-231 and MCF-7",2.08 to 13.6 µM
same,IC50,MDA-MB-231,10.2 ± 0.8 µM
same,IC50,HCT-116,14.5 ± 1.1 µM
same,IC50,VEGFR-2,1.82 ± 0.062 µM
same,Inhibition (%) VEGFR2,"VEGFR-2; 0.01 µM, individual Data 1-3",5.43% and 9.43%
same,Inhibition (%) VEGFR2,"VEGFR-2; 0.1 µM, individual Data 1-3",15% and 21.8%
same,Inhibition (%) VEGFR2,"VEGFR-2; 1 µM, individual Data 1-3",36.9% and 34.2%
same,Inhibition (%) VEGFR2,"VEGFR-2; 10 µM, individual Data 1-3",67.26% and 74.3%
same,Inhibition (%) VEGFR2,"VEGFR-2; 100 µM, individual Data 1-3",86% and 93.4%
same,inhibition at 0.01 µM,"VEGFR-2; read-out: Inhibition (%) VEGFR2, 0.01 µM, individual Data 1-3",7.43%
same,inhibition at 0.1 µM,"VEGFR-2; read-out: Inhibition (%) VEGFR2, 0.1 µM, individual Data 1-3",18.1%
same,inhibition at 1 µM,"VEGFR-2; read-out: Inhibition (%) VEGFR2, 1 µM, individual Data 1-3",39%
same,inhibition at 10 µM,"VEGFR-2; read-out: Inhibition (%) VEGFR2, 10 µM, individual Data 1-3",70.2%
same,inhibition at 100 µM,"VEGFR-2; read-out: Inhibition (%) VEGFR2, 100 µM, individual Data 1-3",89.2%
same,IC50,MCF-7 [2],8.67 ± 0.6 µM
same,Cell Proliferation MCF-7a %,MCF-7a; [7],98%
same,Cell Proliferation MCF-7a Cell Count,MCF-7a; mean ± SD of triplicate,"20,397 ± 589"
same,Inhibition in MCF-7a,MCF-7a; relative to control,2%
same,IC50 at 24 h,[3],75.2 ± 3.9 µM
same,Cell Proliferation MCF-7 %,MCF-7 [4]; [7],73%
same,Cell Proliferation MCF-7 Cell Count,MCF-7 [4]; mean ± SD of triplicate,"13,611 ± 485"
same,Reduction of growth/cell count (inhibition) in MCF-7,MCF-7 [4]; relative to control,27%
same,Inhibition (%) Aromatase,"[5]; 0.01 µM, individual Data 1-3",17% and 20%
same,Inhibition (%) Aromatase,"[5]; 0.1 µM, individual Data 1-3",36%
same,Inhibition (%) Aromatase,"[5]; 1 µM, individual Data 1-3",64% and 63%
same,Inhibition (%) Aromatase,"[5]; 10 µM, individual Data 1-3",84% and 87%
same,Inhibition (%) Aromatase,"[5]; 100 µM, individual Data 1-3",94% and 97%
same,IC50,"[5]; mean ± SD of triplicate, approximate values, read-out: Aromatase Inhibition IC50",0.357 ± 0.012 µM
same,inhibition at 0.01 µM,"[5]; read-out: Inhibition (%) Aromatase, 0.01 µM, individual Data 1-3",18%
same,inhibition at 0.1 µM,"[5]; read-out: Inhibition (%) Aromatase, 0.1 µM, individual Data 1-3",34%
same,inhibition at 1 µM,"[5]; read-out: Inhibition (%) Aromatase, 1 µM, individual Data 1-3",66%
same,inhibition at 10 µM,"[5]; read-out: Inhibition (%) Aromatase, 10 µM, individual Data 1-3",85%
same,inhibition at 100 µM,"[5]; read-out: Inhibition (%) Aromatase, 100 µM, individual Data 1-3",95%
same,IC50,CDK2,1.03 ± 0.032 µM
same,Inhibition (%) CDK2,"CDK2; 0.01 µM, individual Data 1-3",5.2% and 8.6%
same,Inhibition (%) CDK2,"CDK2; 0.1 µM, individual Data 1-3",18.3% and 24.97%
same,Inhibition (%) CDK2,"CDK2; 1 µM, individual Data 1-3",47.4% and 43.2%
same,Inhibition (%) CDK2,"CDK2; 10 µM, individual Data 1-3",76.2% and 84.1%
same,Inhibition (%) CDK2,"CDK2; 100 µM, individual Data 1-3",89.1% and 95.3%
same,inhibition at 0.01 µM,"CDK2; read-out: Inhibition (%) CDK2, 0.01 µM, individual Data 1-3",6.58%
same,inhibition at 0.1 µM,"CDK2; read-out: Inhibition (%) CDK2, 0.1 µM, individual Data 1-3",22.9%
same,inhibition at 1 µM,"CDK2; read-out: Inhibition (%) CDK2, 1 µM, individual Data 1-3",51.2%
same,inhibition at 10 µM,"CDK2; read-out: Inhibition (%) CDK2, 10 µM, individual Data 1-3",79.3%
same,inhibition at 100 µM,"CDK2; read-out: Inhibition (%) CDK2, 100 µM, individual Data 1-3",92.3%
same,IC50,HER2,1.57 ± 0.061 µM
same,Inhibition (%) Her2,"HER2; 0.01 µM, individual Data 1-3",4.92% and 2.56% and 8.92%
same,Inhibition (%) Her2,"HER2; 0.1 µM, individual Data 1-3",7.65% and 12.67%
same,Inhibition (%) Her2,"HER2; 1 µM, individual Data 1-3",45.3% and 42.34%
same,Inhibition (%) Her2,"HER2; 10 µM, individual Data 1-3",71.2% and 75.89%
same,Inhibition (%) Her2,"HER2; 100 µM, individual Data 1-3",88.65% and 94.3%
same,inhibition at 0.1 µM,"HER2; read-out: Inhibition (%) Her2, 0.1 µM, individual Data 1-3",10.2%
same,inhibition at 1 µM,"HER2; read-out: Inhibition (%) Her2, 1 µM, individual Data 1-3",48.9%
same,inhibition at 10 µM,"HER2; read-out: Inhibition (%) Her2, 10 µM, individual Data 1-3",74.7%
same,inhibition at 100 µM,"HER2; read-out: Inhibition (%) Her2, 100 µM, individual Data 1-3",91.6%
same,IC50,EGFR,0.671 ± 0.022 µM
same,Inhibition (%) EGFR,"EGFR; 0.01 µM, individual Data 1-3",3.97% and 2.96% and 6%
same,Inhibition (%) EGFR,"EGFR; 0.1 µM, individual Data 1-3",28.6% and 31.2%
same,Inhibition (%) EGFR,"EGFR; 1 µM, individual Data 1-3",59.9% and 57.5%
same,Inhibition (%) EGFR,"EGFR; 10 µM, individual Data 1-3",82.3% and 86.7%
same,Inhibition (%) EGFR,"EGFR; 100 µM, individual Data 1-3",90.54% and 95%
same,inhibition at 0.1 µM,"EGFR; read-out: Inhibition (%) EGFR, 0.1 µM, individual Data 1-3",29.6%
same,inhibition at 1 µM,"EGFR; read-out: Inhibition (%) EGFR, 1 µM, individual Data 1-3",62.3%
same,inhibition at 10 µM,"EGFR; read-out: Inhibition (%) EGFR, 10 µM, individual Data 1-3",84.2%
same,inhibition at 100 µM,"EGFR; read-out: Inhibition (%) EGFR, 100 µM, individual Data 1-3",92.4%
same,IC50,HeLa,18.2 ± 1.5 µM
